{"source": "paper PMC5515969", "about": "“Effects of 31 FDA approved small-molecule kinase inhibitors on isolated rat liver mitochondria” (Archives of Toxicology, 2016)", "key": {"[1]": {"test_system": "isolated rat liver mitochondria", "experiment": "Mitochondrial oxygen consumption (glutamate/malate or succinate driven, state 4 and state 3); as to State 3 respiration driven by succinate at 10XCmax: key: 0 indicates that the drug had no effects (negative); as to State 3 respiration driven by succinate at 1XCmax: key: 0 indicates that the drug had no effects (negative)", "type": "biochemical", "settings": "DMSO treated samples set as 1", "procedure,_shortened": "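Oxygen uptake on glutamate/malate or on succinate defined state 4; ADP added 3 min later gave state 3. Mitochondria isolated from rat liver by differential centrifugation, adjusted to 1 mg/ml and pretreated 5 min with inhibitor (0.1% DMSO final). Values relative to DMSO control, set to 1.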"}, "RCC I": {"test_system": "RCC I", "experiment": "RCC I activity in submitochondrial particles", "type": "biochemical, rat", "design": "key to RCC I at 10XCmax / RCC I at 100XCmax / RCC I at 50XCmax / RCC I at 30XCmax / RCC I at 20XCmax: activity relative to DMSO-treated controls (control set as 1 = 100%)", "settings": "10XCmax; DMSO treated samples set as 1", "procedure,_shortened": "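First, submitochondrial particles (1 mg/ml) are incubated with inhibitor for 15 min. Next, complex activities are followed spectrophotometrically, with RCC I taken as the difference between buffers lacking and containing rotenone. Finally, activities are expressed relative to DMSO controls set at 1.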"}, "RCC II": {"target": "T1, RCC II (Rattus norvegicus, UniProt P21913+Q641Z9+Q6PCT8+Q920L2)", "T1 construct": "Submitochondrial particles were prepared by subjecting the intact mitochondria to three successive freeze–thaw cycles; from tissue; host or cells: rat liver mitochondria, used as submitochondrial particles", "T1 sequence (Q920L2 35-656)": "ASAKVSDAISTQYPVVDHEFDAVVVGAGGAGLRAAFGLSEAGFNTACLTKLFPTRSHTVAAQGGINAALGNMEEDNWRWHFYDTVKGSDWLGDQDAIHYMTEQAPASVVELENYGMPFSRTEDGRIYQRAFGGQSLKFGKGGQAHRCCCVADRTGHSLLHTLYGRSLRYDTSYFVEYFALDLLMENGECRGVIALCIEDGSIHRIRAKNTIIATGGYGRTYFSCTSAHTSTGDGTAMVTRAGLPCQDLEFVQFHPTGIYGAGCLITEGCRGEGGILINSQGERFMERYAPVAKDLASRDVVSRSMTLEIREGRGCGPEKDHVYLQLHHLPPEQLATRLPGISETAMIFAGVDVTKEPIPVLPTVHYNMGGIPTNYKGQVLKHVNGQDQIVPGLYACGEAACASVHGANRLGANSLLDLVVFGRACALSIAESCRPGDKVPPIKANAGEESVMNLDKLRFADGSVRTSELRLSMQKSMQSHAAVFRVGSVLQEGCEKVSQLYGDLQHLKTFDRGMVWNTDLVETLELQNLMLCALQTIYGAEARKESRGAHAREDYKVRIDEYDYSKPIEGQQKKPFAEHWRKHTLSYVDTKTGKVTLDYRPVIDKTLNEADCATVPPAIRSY", "T1 sequence (P21913 31-282)": "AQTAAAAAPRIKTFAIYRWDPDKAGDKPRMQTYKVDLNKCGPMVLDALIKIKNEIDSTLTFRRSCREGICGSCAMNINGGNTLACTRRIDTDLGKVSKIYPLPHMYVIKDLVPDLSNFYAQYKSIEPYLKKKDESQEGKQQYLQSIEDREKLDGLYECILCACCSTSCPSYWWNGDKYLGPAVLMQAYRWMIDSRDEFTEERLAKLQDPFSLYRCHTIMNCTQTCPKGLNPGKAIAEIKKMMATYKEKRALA", "T1 sequence (Q641Z9 1-169)": "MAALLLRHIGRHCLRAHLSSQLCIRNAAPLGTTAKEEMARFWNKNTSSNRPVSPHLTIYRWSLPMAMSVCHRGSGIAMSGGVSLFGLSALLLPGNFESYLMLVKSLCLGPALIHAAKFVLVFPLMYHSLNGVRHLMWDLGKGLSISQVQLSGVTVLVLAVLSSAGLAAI", "T1 sequence (Q6PCT8 57-159)": "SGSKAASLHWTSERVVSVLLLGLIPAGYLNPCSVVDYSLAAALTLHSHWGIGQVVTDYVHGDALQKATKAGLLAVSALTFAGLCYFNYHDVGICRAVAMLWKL", "experiment": "RCC II activity in submitochondrial particles", "type": "biochemical", "design": "key: activity relative to DMSO-treated controls (control set as 1 = 100%)", "settings": "DMSO treated samples set as 1", "procedure,_shortened": "(§1)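 Abs 340 nm (I/V) or 600 nm (II), 1-min reads × 6 min; 550 nm (III, IV), 10-s reads × 2 min. RCC I = rotenone-free minus rotenone rate. DMSO control = 1.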"}, "RCC III": {"test_system": "RCC III", "experiment": "RCC III activity in submitochondrial particles", "type": "biochemical, rat", "design": "key to RCC III at 100XCmax: activity relative to DMSO-treated controls (control set as 1 = 100%)", "settings": "100XCmax", "procedure,_shortened": "as §1"}, "RCC IV": {"test_system": "RCC IV", "experiment": "RCC IV activity in submitochondrial particles", "type": "biochemical, rat", "design": "key to RCC IV at 50XCmax / RCC IV at 100XCmax: activity relative to DMSO-treated controls (control set as 1 = 100%)", "settings": "50XCmax; DMSO treated samples set as 1; in %", "procedure,_shortened": "as §1"}, "[2]": {"test_system": "isolated rat liver mitochondria", "experiment": "Mitochondrial inner membrane potential (MMP), Rhodamine 123", "type": "biochemical", "settings": "difference in signal between KI and DMSO treated samples at the end of experiments", "text": "Fig. 3 KI effects on mitochondrial inner membrane potential (MMP). […] In a, c, data are means and standard derivations from three separate experiments. *p < 0.05 as compared to DMSO-treated samples at the end of experiments. In b, data are means of two independent experiments"}, "[3]": {"test_system": "isolated rat liver mitochondria", "settings": "positive control alamethicin treated samples"}, "[4]": {"settings": "human therapeutic maximal blood concentration, ref product labeling, cited from earlier work"}, "[5]": {"test_system": "isolated rat liver mitochondria", "experiment": "Mitochondrial ROS production (CM-H2DCFDA)", "settings": "DMSO treated samples set as 1"}}, "data": [{"smiles": "CN(C)C/C=C/C(=O)Nc1cc2c(Nc3ccc(F)c(Cl)c3)ncnc2cc1O[C@H]1CCOC1", "note": "[afatinib dimaleate]", "values": [{"measurement": "State 3 respiration driven by glutamate/malate at 1XCmax", "setting": "[1]; 1XCmax", "value": 0}, {"measurement": "State 3 respiration driven by succinate at 1XCmax", "setting": "[1]; 1XCmax", "value": 0}, {"measurement": "State 4 respiration driven by glutamate/malate at 1XCmax", "setting": "[1]; 1XCmax", "value": 0}, {"measurement": "State 4 respiration driven by succinate at 1XCmax", "setting": "[1]; 1XCmax", "value": 0}, {"measurement": "State 3 respiration driven by glutamate/malate at 2.5XCmax", "setting": "[1]; 2.5XCmax", "value": 0}, {"measurement": "State 3 respiration driven by succinate at 2.5XCmax", "setting": "[1]; 2.5XCmax", "value": 0}, {"measurement": "State 4 respiration driven by glutamate/malate at 2.5XCmax", "setting": "[1]; 2.5XCmax", "value": 0}, {"measurement": "State 4 respiration driven by succinate at 2.5XCmax", "setting": "[1]; 2.5XCmax", "value": 0}, {"measurement": "State 3 respiration driven by glutamate/malate at 5XCmax", "setting": "[1]; 5XCmax", "value": 0}, {"measurement": "State 3 respiration driven by succinate at 5XCmax", "setting": "[1]; 5XCmax", "value": 0}, {"measurement": "State 4 respiration driven by glutamate/malate at 5XCmax", "setting": "[1]; 5XCmax", "value": 0}, {"measurement": "State 4 respiration driven by succinate at 5XCmax", "setting": "[1]; 5XCmax", "value": 0}, {"measurement": "State 3 respiration driven by glutamate/malate at 10XCmax", "setting": "[1]; 10XCmax", "value": 0}, {"measurement": "State 3 respiration driven by succinate at 10XCmax", "setting": "[1]; 10XCmax", "value": 0}, {"measurement": "State 4 respiration driven by glutamate/malate at 10XCmax", "setting": "[1]; 10XCmax", "value": 0}, {"measurement": "State 4 respiration driven by succinate at 10XCmax", "setting": "[1]; 10XCmax", "value": 0}, {"measurement": "State 3 respiration driven by glutamate/malate at 20XCmax", "setting": "[1]; 20XCmax", "value": 0}, {"measurement": "State 3 respiration driven by succinate at 20XCmax", "setting": "[1]; 20XCmax", "value": 0}, {"measurement": "State 4 respiration driven by glutamate/malate at 20XCmax", "setting": "[1]; 20XCmax", "value": 0}, {"measurement": "State 4 respiration driven by succinate at 20XCmax", "setting": "[1]; 20XCmax", "value": 0}, {"measurement": "State 3 respiration driven by glutamate/malate at 30XCmax", "setting": "[1]; 30XCmax", "value": 0}, {"measurement": "State 3 respiration driven by succinate at 30XCmax", "setting": "[1]; 30XCmax", "value": 0}, {"measurement": "State 4 respiration driven by glutamate/malate at 30XCmax", "setting": "[1]; 30XCmax", "value": 0}, {"measurement": "State 4 respiration driven by succinate at 30XCmax", "setting": "[1]; 30XCmax", "value": 0}, {"measurement": "State 3 respiration driven by glutamate/malate at 50XCmax", "setting": "[1]; 50XCmax", "value": 0}, {"measurement": "State 3 respiration driven by succinate at 50XCmax", "setting": "[1]; 50XCmax", "value": 0}, {"measurement": "State 4 respiration driven by glutamate/malate at 50XCmax", "setting": "[1]; 50XCmax", "value": 0}, {"measurement": "State 4 respiration driven by succinate at 50XCmax", "setting": "[1]; 50XCmax", "value": 0}, {"measurement": "State 3 respiration driven by glutamate/malate at 100XCmax", "setting": "[1]; 100XCmax", "value": 0}, {"measurement": "State 3 respiration driven by succinate at 100XCmax", "setting": "[1]; 100XCmax", "value": 0}, {"measurement": "State 4 respiration driven by glutamate/malate at 100XCmax", "setting": "[1]; 100XCmax", "value": 0}, {"measurement": "State 4 respiration driven by succinate at 100XCmax", "setting": "[1]; 100XCmax", "value": 0}, {"measurement": "RCC I at 10XCmax", "setting": "RCC I", "value": 0}, {"measurement": "RCC II at 1.0XCmax", "setting": "RCC II; 1.0XCmax", "value": 0}, {"measurement": "RCC II at 2.5XCmax", "setting": "RCC II; 2.5XCmax", "value": 0}, {"measurement": "RCC II at 5XCmax", "setting": "RCC II; 5XCmax", "value": 0}, {"measurement": "RCC II at 10XCmax", "setting": "RCC II; 10XCmax", "value": 0}, {"measurement": "RCC II at 20XCmax", "setting": "RCC II; 20XCmax", "value": 0}, {"measurement": "RCC II at 30XCmax", "setting": "RCC II; 30XCmax", "value": 0}, {"measurement": "RCC II at 50XCmax", "setting": "RCC II; 50XCmax", "value": 0}, {"measurement": "RCC II at 100XCmax", "setting": "RCC II; 100XCmax", "value": 0}, {"measurement": "RCC III at 100XCmax", "setting": "RCC III", "value": 0}, {"measurement": "RCC IV at 50XCmax", "setting": "RCC IV", "value": 0}, {"measurement": "MMP measured by Rhodamine 123 at 1XCmax", "setting": "[2]; 1XCmax", "value": 0}, {"measurement": "MMP measured by Rhodamine 123 at 2.5XCmax", "setting": "[2]; 2.5XCmax", "value": 0}, {"measurement": "MMP measured by Rhodamine 123 at 5XCmax", "setting": "[2]; 5XCmax", "value": 0}, {"measurement": "MMP measured by Rhodamine 123 at 10XCmax", "setting": "[2]; 10XCmax", "value": 0}, {"measurement": "MMP measured by Rhodamine 123 at 20XCmax", "setting": "[2]; 20XCmax", "value": 0}, {"measurement": "MMP measured by Rhodamine 123 at 30XCmax", "setting": "[2]; 30XCmax", "value": 0}, {"measurement": "MMP measured by Rhodamine 123 at 50XCmax", "setting": "[2]; 50XCmax", "value": 0}, {"measurement": "MMP measured by Rhodamine 123 at 100XCmax", "setting": "[2]; 100XCmax", "value": 0}, {"measurement": "Cytochrome c release 1XCmax", "setting": "[3]; 1XCmax", "value": 0}, {"measurement": "Cytochrome c release 2.5XCmax", "setting": "[3]; 2.5XCmax", "value": 0}, {"measurement": "Cytochrome c release 5XCmax", "setting": "[3]; 5XCmax", "value": 0}, {"measurement": "Cytochrome c release 10XCmax", "setting": "[3]; 10XCmax", "value": 0}, {"measurement": "Cytochrome c release 20XCmax", "setting": "[3]; 20XCmax", "value": 0}, {"measurement": "Cytochrome c release 30XCmax", "setting": "[3]; 30XCmax", "value": 0}, {"measurement": "Cytochrome c release 50XCmax", "setting": "[3]; 50XCmax", "value": 0}, {"measurement": "Cytochrome c release 100XCmax", "setting": "[3]; 100XCmax", "value": 0}, {"measurement": "Cmax (ng or µg/ml)", "setting": "[4]", "value": 0.0252, "unit": "µg/mL"}, {"measurement": "Cmax", "setting": "[4]; read-out: Cmax at µM", "value": 0.04, "unit": "µM"}, {"measurement": "ROS measured by CM-H2DCFDA at 1XCmax", "setting": "[5]; 1XCmax", "value": 0}, {"measurement": "ROS measured by CM-H2DCFDA at 2.5XCmax", "setting": "[5]; 2.5XCmax", "value": 0}, {"measurement": "ROS measured by CM-H2DCFDA at 5XCmax", "setting": "[5]; 5XCmax", "value": 0}, {"measurement": "ROS measured by CM-H2DCFDA at 10XCmax", "setting": "[5]; 10XCmax", "value": 0}, {"measurement": "ROS measured by CM-H2DCFDA at 20XCmax", "setting": "[5]; 20XCmax", "value": 0}, {"measurement": "ROS measured by CM-H2DCFDA at 30XCmax", "setting": "[5]; 30XCmax", "value": 0}, {"measurement": "ROS measured by CM-H2DCFDA at 50XCmax", "setting": "[5]; 50XCmax", "value": 0}, {"measurement": "ROS measured by CM-H2DCFDA at 100XCmax", "setting": "[5]; 100XCmax", "value": 0}]}]}
